The source of these data is paper PMC11019746 (ACS Pharmacology & Translational Science, 2024).

Series [1] has as its target T1, Y4R (Homo sapiens, UniProt P50391). Particulars: cited from earlier work.
The target in series [2] is T2, Y4R^SwBac displaying BBVs (Homo sapiens, UniProt P50391).
T2 construct: made in house; host or cells: Sf9 insect cells (budded baculovirus particles; MultiBac, with or without the SweetBac module)
Briefly: Fluorescence anisotropy Y4R competition binding with 16 (Y4R^SwBac BBVs). As to conditions: DPBS, 16 (0.5 nM) as labeled probe, read-out: pKi FA, 137 mM Na+ (converted). For orientation: Fluorescence polarisation rises when a labelled molecule tumbles more slowly, as on binding a larger partner.
Experimental: Two types of MultiBac baculoviruses were used: one type encodes only for hY4R resulting in BBVs displaying Y4R devoid of a mammalian-like glycosylation (herein termed Y4R^nonglyco) and the second type additionally encodes for enzymes providing a mammalian-like glycosylation in Sf9 cells (herein termed Y4R^SwBac; see also Section Molecular Cloning). The obtained viruses were collected by centrifugation at 1600g for 10 min, and the virus titer was determined with an image-based cell-size estimation assay as described elsewhere.[64] […]
FA measurements were carried out using a Synergy NEO multimode plate reader (BioTek, Winooski, VT) and black, half-area, flat-bottom polystyrene NBS (nonbinding surface) 96-well plates (Corning, Corning, NY, product no. 3993). Polarizing excitation (530 ± 15 nm) and dual emission (590 ± 17.5 nm) filters with a dichroic mirror were used, allowing the simultaneous detection of parallelly and perpendicularly polarized fluorescence emission. […]
FA signals were measured for 1.5 h.
Data processing for FA binding assays was assisted by the software Aparecium 2.0.20 developed in house (http://www.gpcr.ut.ee/software.html). Prior to the calculation of FA using eq 1,[19] the measured parallel [I∥(t)] and perpendicular [I⊥(t)] fluorescence intensities were blank-corrected on the basis of the values obtained from wells containing BBVs but no receptor ligand. […]

Series [3] addresses T3, hY1R (Homo sapiens, UniProt P25929).
T3 construct: host or cells: SK-N-MC neuroblastoma cells
T3 sequence (P25929 1-384): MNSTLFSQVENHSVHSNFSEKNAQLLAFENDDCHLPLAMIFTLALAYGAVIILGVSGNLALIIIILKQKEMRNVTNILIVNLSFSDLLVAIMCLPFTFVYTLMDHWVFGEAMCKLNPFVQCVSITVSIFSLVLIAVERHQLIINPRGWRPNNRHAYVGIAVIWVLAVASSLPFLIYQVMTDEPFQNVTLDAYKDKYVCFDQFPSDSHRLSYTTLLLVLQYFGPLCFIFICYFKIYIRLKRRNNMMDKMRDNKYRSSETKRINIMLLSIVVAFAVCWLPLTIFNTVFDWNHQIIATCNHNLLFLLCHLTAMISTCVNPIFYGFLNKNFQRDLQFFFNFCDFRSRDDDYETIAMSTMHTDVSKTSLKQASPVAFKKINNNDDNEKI
As to conditions: cited from earlier work.

Series [4] concerns the target T4, hY2R (Homo sapiens, UniProt P49146).
T4 construct: host or cells: CHO
T4 sequence (P49146 1-381): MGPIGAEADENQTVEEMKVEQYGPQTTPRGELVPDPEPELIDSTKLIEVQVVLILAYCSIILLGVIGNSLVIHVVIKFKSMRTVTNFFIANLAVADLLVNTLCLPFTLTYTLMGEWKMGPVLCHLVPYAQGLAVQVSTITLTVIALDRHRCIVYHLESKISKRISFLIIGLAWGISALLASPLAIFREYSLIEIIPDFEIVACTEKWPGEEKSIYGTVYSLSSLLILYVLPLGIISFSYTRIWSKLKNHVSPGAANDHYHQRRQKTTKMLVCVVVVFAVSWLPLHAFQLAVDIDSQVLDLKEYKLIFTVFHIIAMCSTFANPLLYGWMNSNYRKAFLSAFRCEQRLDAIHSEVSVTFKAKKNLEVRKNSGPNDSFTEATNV
As to conditions: cited from earlier work.

In series [5] the target is T5, hY5R (Homo sapiens, UniProt Q15761).
T5 construct: expressed in transfected cells; host or cells: HEC-1B (human endometrial cancer)
T5 sequence (Q15761 1-445): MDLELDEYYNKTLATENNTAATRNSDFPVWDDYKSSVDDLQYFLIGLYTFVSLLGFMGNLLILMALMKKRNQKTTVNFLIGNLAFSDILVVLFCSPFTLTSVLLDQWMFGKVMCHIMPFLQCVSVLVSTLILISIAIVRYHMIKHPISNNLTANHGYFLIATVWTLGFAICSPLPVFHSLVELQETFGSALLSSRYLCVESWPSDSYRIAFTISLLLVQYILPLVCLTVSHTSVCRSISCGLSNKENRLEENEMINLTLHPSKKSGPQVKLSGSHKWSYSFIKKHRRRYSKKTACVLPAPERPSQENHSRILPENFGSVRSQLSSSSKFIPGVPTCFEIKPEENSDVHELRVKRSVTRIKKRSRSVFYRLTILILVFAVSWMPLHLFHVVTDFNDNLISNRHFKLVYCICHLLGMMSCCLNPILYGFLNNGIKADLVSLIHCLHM
As to conditions: cited from earlier work.

The target of another series is hY4R-Nluc(intraECL2) (Homo sapiens, UniProt P50391, INS195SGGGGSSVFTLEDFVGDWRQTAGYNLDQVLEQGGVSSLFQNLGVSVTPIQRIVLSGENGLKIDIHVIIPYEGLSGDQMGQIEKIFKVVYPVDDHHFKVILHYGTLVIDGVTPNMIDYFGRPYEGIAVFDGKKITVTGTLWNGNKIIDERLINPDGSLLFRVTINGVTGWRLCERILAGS). Briefly: NanoBRET Y4R competition binding with 16. Background: Bioluminescence resonance energy transfer reports proximity on the nanometre scale.

For series [6], the target named is T1, Y4R. Put plainly: Y4R miniGsi recruitment assay (HEK293T-NlucN-mGsi/Y4R-NlucC cells). On miniGsi recruitment Emax ± SEM: relative to 1 µM hPP (100%). Type of series: cell-based. On the set-up: expressed in transfected cells; host or cells: HEK293T. Particulars: for EC50: HEK293T-NlucN-mGsi/Y4R-NlucC cells; for Emax: read-out: miniGsi recruitment Emax ± SEM. The procedure:
Furimazine was used as nanoluciferase substrate. The original stock was diluted 1:1000 in L15-HEPES to obtain the feed solution for the assay. Data analysis was performed based on the areas under the curves (time window: 45 min starting with the agonist addition) using GraphPad Prism 5. […] Efficacies Emax correspond to the upper plateaus of the normalized concentration–response curves.

The target in series [7] is T6, hY4R (Homo sapiens, UniProt P50391). Briefly: Flow cytometric Y4R competition binding with 16 as labeled ligand. As to conditions: intact CHO-hY4R-Gqi5-mtAEQ cells. More on the design: expressed in transfected cells; host or cells: CHO (co-expressing Gqi5 and mitochondrially targeted aequorin). The procedure:
The latter was used for injection of the samples of saturation and competition binding experiments. At least three individual experiments were performed in duplicate (kinetic experiments) or triplicate (saturation and competition binding). […] Measurements were stopped after counting of 2000–10000 gated events.
2 to 3 days prior to the experiment, cells were seeded in T75 or T175 culture flasks. On the day of the experiment, cells were detached by trypsinization, suspended in culture medium, and centrifuged. […] HCl (nonlabeled ligands, saturation, and kinetic experiments).

Series [8] concerns the target T6, hY4R. On the set-up: expressed in transfected cells; host or cells: CHO (co-expressing Gqi5 and mitochondrially targeted aequorin). As to conditions: cited from earlier work.
Series [9] deals with T3, hY1R. Briefly: Y1R radioligand competition binding, whole SK-N-MC cells, [3H]UR-MK299. Particulars: SK-N-MC neuroblastoma cells, [3H]UR-MK299 c = […]. The procedure: (§1) All radioligand binding assays were performed at intact Y receptor expressing cells at 23 ± 2 °C.
Competition binding assays at Y1R-expressing SK-N-MC neuroblastoma cells were performed as previously described using [^3H]UR-MK299 as radioligand (concentration: 0.15 nM).[33] […] (logarithmic form in the case of pKi values).

Series [10] has as its target T4, hY2R. Put plainly: Y2R radioligand competition binding, whole CHO-hY2R cells, [3H]propionyl-pNPY. Particulars: read-out: pKi ± SEM hY2R (converted). The procedure:
as §1

The target in series [11] is T5, hY5R. Put plainly: Y5R radioligand competition binding, whole HEC-1B-hY5R cells, [3H]propionyl-pNPY. As to conditions: [3H]propionyl-pNPY c = 5 nM. The procedure:
as §1
(logarithmic form in the case of pKi values).
In general terms: Displacement assays read how much labelled ligand stays bound in the presence of the test substance.

Series [12] in a line: Chemical stability in PBS pH 7.4. Type of series: physicochemical. Particulars: PBS pH 7.4, room temperature, 48 h, 100 μM. The procedure:
The chemical stability of the fluorescent ligands 16, 17, and 18 was investigated in PBS (adjusted to pH 7.4) at 22 °C. […] After time periods of 0, 6, and 48 h, an aliquot (25 μL) was withdrawn and added to 25 μL of acetonitrile/0.04% aq. TFA 1:9 v/v to obtain a peptide solution with a concentration of 50 μM. 20 μL of this solution were subjected to analytical RP-HPLC analysis using the same system and conditions as described under Analytical HPLC, but applying a different linear gradient: 0–14 min: A/B 90:10–45:55, 14–15 min: 45:55–5:95, 15–19 min: 5:95 (isocratic). A 1:1 mixture of PBS and acetonitrile/0.04% aq. TFA 1:9 v/v (20 μL) was analyzed to obtain the blank chromatogram.

The target in series [13] is T6, hY4R. Briefly: Y4R cAMP CAMYEN assay (HEK293T-CAMYEN-hY4R cells). Further: relative to 1 µM hPP (100%). On the set-up: expressed in transfected cells. It is filed as cell-based. As to conditions: read-out: CAMYEN cAMP Emax ± SEM. The procedure:
The assay was performed with live HEK293T-CAMYEN-hY4R cells applying a reported protocol.[31] Experiments were performed in triplicate. Data processing was performed with GraphPad Prism 9.0 as previously described.[31]

Series [14] has as its target T6, hY4R. Put plainly: Y4R Ca2+ aequorin assay (CHO-hY4R-Gqi5-mtAEQ cells). Type of series: cell-based. More on the design: expressed in transfected cells; host or cells: CHO (co-expressing Gqi5 and mitochondrially targeted aequorin). As to conditions: read-out: Ca2+-aequorin Emax ± SEM. The procedure: The assay was performed with live CHO-hY4R-Gqi5-mtAEQ cells as previously described (used buffer: buffer III). Measurements were carried out on a Tecan Infinite Lumi plate reader. Data analysis was performed as reported using GraphPad Prism 5 for the calculation of the area under the curve. […] Efficacies Emax correspond to the upper plateaus of the normalized concentration–response curves.

Series [15] has as its target T1, Y4R. As to conditions: cited from earlier work. The source holds these as a separate data set.
Setting [16] is: DPBS, 16 (1 nM) as labeled probe, read-out: pKi flow cytometry, 137 mM Na+ (converted).
The mark [17] stands for this setting: buffer I, 16 (0.5 nM) as labeled probe, read-out: pKi flow cytometry, Na+ free (converted).
Where [18] appears, read: read-out: pKi ± SEM hY1R (converted).
The mark [19] stands for this setting: read-out: pKi ± SEM hY5R (converted).

Like-named read-outs stand apart in the source and are kept apart here. Marks after values point to notes of the source that are not given here.

Experimental for hY4R-Nluc(intraECL2): One the day prior to the experiment, HEK293T-hY4R-Nluc(intraECL2) cells were detached from the culture flask by trypsinization, centrifuged (500g, 5 min), and resuspended in FBS-free L15-HEPES. The cell density was adjusted to 1.14 × 10^6 cells/mL, and the cells were seeded into white 96-well plates (Brand, Wertheim, Germany) (70 μL, 80,000 cells per well) and incubated overnight in a water-saturated atmosphere (only atmospheric CO2). […] The final BSA concentration in the assay was 1.5% (30 μL of a solution containing 5% BSA added to 70 μL of BSA-free medium, as outlined below).
All BRET measurements were performed at a temperature of 25 °C using a TECAN Infinite Lumi plate reader (Tecan, Crailsheim, Germany) equipped with an injection module. Bioluminescence of the nanoluciferase was detected using a 460/35 nm band-pass (460/35 BP) filter. The emission of the fluorescent ligands was detected through a 610 nm long-pass (610 LP) filter. […]
Total binding data from competition binding experiments were plotted as corrected BRET ratio over log(competitor concentration, M) and analyzed by a four-parameter logistic equation (log(inhibitor) vs response–variable slope, GraphPad Prism 5) to obtain the TOP value (upper curve plateau), which was used for data normalization (100% = TOP value, 0% = average of the corrected BRET ratio obtained from unspecific binding). […]

Usually Kd stands for the equilibrium constant for the complex coming apart. Take “5-TAMRA-[K18,Nle17,30]hPP (2) (from UniProt P01298)”: the Kd in the series with Y4R [1] is 26 nM.
As a reminder, the Emax is the size of the effect at its maximum, as opposed to the concentration needed. On to `CC(C)C[C@H](NC(=O)[C@@H]1CCCNC(N)=NC(=O)NCCCCNC(=O)CCC(=O)N[C@@H](CCCNC(=N)N)C(=O)N[C@@H](Cc2c[nH]c3ccccc23)C(=O)N1)C(=O)N[C@@H](CCCNC(=N)N)C(=O)N[C@@H](Cc1ccc(O)cc1)C(N)=O` [Compound 5], for which the Ki in series [2] is 0.55 nM; at hY1R [3], above 10000 nM; on hY2R [4], above 10000 nM; on hY5R [5], above 3000 nM; on hY4R-Nluc(intraECL2) it was 1.29 nM; at hY4R [7] (setting [16]) it was 0.708 nM. Moreover, the Ki at hY4R [7] (setting [17]) is 0.324 nM. Moreover, at hY1R [3], the “pKi hY1R” value is on record as below 5. Moreover, on hY2R [4], the “pKi hY2R” value is given as below 5. The “pKi hY5R” value at hY5R [5] is below 5.5. Moreover, the EC50 on Y4R [6] (read-out: miniGsi recruitment EC50 (converted)) was 1.8 nM. Also, the Emax at Y4R [6] was 61 ± 2%.
In the case of `CCC(=O)NCCCC(=O)N[C@@H]1CC(=O)N[C@@H](CCCNC(=N)N)C(=O)N[C@@H](Cc2ccc(O)cc2)C(=O)N[C@H](C(=O)N[C@@H](CC(C)C)C(=O)N[C@@H](CCCNC(=N)N)C(=O)N[C@@H](Cc2ccc(O)cc2)C(N)=O)CCCNC(N)=NC(=O)NCCCCNC1=O` [Compound 7], the Ki was 0.398 nM in series [2], 0.851 nM on hY4R-Nluc(intraECL2), 1.58 nM on hY4R [7] (setting [16]) and 0.245 nM on hY4R [7] (setting [17]). On hY4R [8], the “pKi literature, 137 mM Na+” value is recorded as 9.79 ^e.
As for `CC(C)C[C@H](NC(=O)[C@@H]1CCCNC(N)=NC(=O)NCCCCNC(=O)[C@H](NC(=O)CCCNC(=O)CCC#Cc2ccc3c(c2)C(C)(C)C2=C4C=C5C6=[N+](CCC5OC4CCN23)c2ccc(S(=O)(=O)[O-])cc2C6(C)C)CC(=O)N[C@@H](CCCNC(=N)N)C(=O)N[C@@H](Cc2ccc(O)cc2)C(=O)N1)C(=O)N[C@@H](CCCNC(=N)N)C(=O)N[C@@H](Cc1ccc(O)cc1)C(N)=O` (stereo partly drawn) [Compound 16], the Ki was 120 nM on hY1R [9] (read-out: Ki hY1R (converted)); 123 nM on hY1R [9] (setting [18]); above 1000 nM on hY2R [10]; 480 nM on hY5R [11] (read-out: Ki hY5R (converted)); 479 nM at hY5R [11] (setting [19]). Further, the chemical stability entry in [12] was “excellent stability”. The figures for the Emax on hY4R [13], at Y4R [6] and on hY4R [14] were 93 ± 5%, 72 ± 9% and 66 ± 2%, respectively.
In the case of `CC(C)C[C@H](NC(=O)[C@@H]1CCCNC(N)=NC(=O)NCCCCNC(=O)[C@H](NC(=O)CCCNC(=O)CCCCCN2/C(=C/C=C/C=C/C3=[N+](CCCCS(=O)(=O)[O-])c4ccccc4C3(C)C)C(C)(C)c3cc(S(=O)(=O)O)ccc32)CC(=O)N[C@@H](CCCNC(=N)N)C(=O)N[C@@H](Cc2ccc(O)cc2)C(=O)N1)C(=O)N[C@@H](CCCNC(=N)N)C(=O)N[C@@H](Cc1ccc(O)cc1)C(N)=O` [Compound 17], the Ki at hY1R [9] (setting [18]), on hY2R [10] and at hY5R [11] (setting [19]) was above 1000 nM in each case. In [12], the chemical stability entry is given as “excellent stability”. The Emax on hY4R [13] was found to be 90 ± 3%; at Y4R [6], 70 ± 9%; on hY4R [14], 71 ± 3%. For the same compound, the EC50 at Y4R [6] (read-out: miniGsi recruitment pEC50 ± SEM (converted)) is 85.1 nM.
Turning to Sulfo-Cy5-[K4]hPP (from UniProt P01298), the Kd in the series with Y4R [15] was 5.6 nM.
